Measurements as given in patent US9018258B2, “Substituted 1-benzylcycloalkylcarboxylic acids and the use thereof” (Bayer Intellectual Property GmbH, priority 2010, dated 2015).
pEC50, pIC50: −log10 of the molar value.

Tests used:
sGC = molecular target: T1, sGC (Rattus norvegicus, UniProt P20595); assay: Action at a recombinant guanylate cyclase reporter cell line (CHO reporter cell); assay type: cell-based; conditions: CHO reporter cell in vitro
T1 construct: expressed in transfected cells; host or cells: CHO reporter cell
T1 sequence (P19686 whole entry partner): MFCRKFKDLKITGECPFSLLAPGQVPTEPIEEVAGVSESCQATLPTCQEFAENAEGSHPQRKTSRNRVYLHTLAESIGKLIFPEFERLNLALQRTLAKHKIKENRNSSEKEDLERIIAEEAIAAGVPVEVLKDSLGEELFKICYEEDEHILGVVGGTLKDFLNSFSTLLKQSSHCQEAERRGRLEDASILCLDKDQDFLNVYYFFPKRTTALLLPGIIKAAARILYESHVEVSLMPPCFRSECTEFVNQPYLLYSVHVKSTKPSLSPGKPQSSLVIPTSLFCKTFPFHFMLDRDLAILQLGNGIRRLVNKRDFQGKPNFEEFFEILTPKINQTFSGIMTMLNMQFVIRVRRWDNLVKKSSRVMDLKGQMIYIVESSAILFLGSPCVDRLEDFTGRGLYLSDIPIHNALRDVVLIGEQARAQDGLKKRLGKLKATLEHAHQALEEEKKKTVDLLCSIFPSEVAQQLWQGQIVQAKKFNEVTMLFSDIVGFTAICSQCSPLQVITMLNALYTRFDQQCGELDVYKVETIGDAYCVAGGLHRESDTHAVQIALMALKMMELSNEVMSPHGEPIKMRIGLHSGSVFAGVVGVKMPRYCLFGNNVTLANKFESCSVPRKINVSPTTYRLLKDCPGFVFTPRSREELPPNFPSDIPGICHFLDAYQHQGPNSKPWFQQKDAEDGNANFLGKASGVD
T1 sequence (P20595 whole entry): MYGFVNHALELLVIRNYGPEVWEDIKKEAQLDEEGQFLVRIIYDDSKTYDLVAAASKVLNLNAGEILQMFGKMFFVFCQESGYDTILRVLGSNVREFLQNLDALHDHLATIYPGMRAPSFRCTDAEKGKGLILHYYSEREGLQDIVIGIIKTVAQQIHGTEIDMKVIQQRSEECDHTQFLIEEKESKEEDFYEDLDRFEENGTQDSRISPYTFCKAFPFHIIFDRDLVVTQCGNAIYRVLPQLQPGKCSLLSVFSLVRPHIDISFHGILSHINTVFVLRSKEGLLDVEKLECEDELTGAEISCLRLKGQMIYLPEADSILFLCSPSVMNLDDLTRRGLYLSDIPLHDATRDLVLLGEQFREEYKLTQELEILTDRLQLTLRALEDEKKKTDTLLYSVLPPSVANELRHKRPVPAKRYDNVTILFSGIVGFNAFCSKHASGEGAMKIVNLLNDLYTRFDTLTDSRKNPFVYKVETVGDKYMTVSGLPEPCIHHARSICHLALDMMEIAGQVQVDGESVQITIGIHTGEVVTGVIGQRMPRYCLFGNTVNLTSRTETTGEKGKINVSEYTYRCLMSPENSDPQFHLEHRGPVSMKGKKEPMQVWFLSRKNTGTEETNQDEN
Protocol: The cellular action of the compounds according to the invention is determined at a recombinant guanylate cyclase reporter cell line, as described in F. Wunder et al., Anal. Biochem. 339, 104-112 (2005).

saphenous artery = assay: Vasorelaxant effect in vitro (phenylephrine-contracted saphenous artery rings); parameters: species or system Rabbits; conditions: Oryctolagus cuniculus; rabbit saphenous artery rings, phenylephrine-induced contraction
Protocol: Rabbits are anaesthetized and sacrificed by intravenous injection of thiopental sodium (about 50 mg/kg) and exsanguinated. The saphenous artery is removed and divided into rings 3 mm wide. the rings are mounted singly on in each case a pair of triangular hooks open at the end and made of 0.3 mm-thick special wire (Remanium®). Each ring is placed under an initial tension in 5 ml organ baths with Krebs-Henseleit solution which is at 37° C., is gassed with carbogen and has the following composition: NaCl 119 mM; KCl 4.8 mM; CaCl2×2 H2O 1 mM; MgSO4×7 H2O 1.4 mM; KH2PO4 1.2 mM; NaHCO3 25 mM; glucose 10 mM; bovine serum albumin 0.001%. The force of contraction is detected with Statham UC2 cells, amplified and digitized via A/D converters (DAS-1802 HC, Keithley Instruments, Munich) and recorded in parallel on chart recorders. Contractions are induced by addition of phenylephrine.
After several (generally 4) control cycles, the substance to be investigated is added in each further run in increasing dosage, and the level of the contraction achieved under the influence of the test substance is compared with the level of the contraction reached in the last preceding run. The concentration necessary to reduce the contraction reached in the preceding control by 50% is calculated from this (IC50). The standard application volume is 5 μl. The proportion of DMSO in the bath solution corresponds to 0.1%.

GAL4-PPARγ = molecular target: T2, GAL4-PPARγ (Homo sapiens, UniProt P37231); assay: Cellular PPAR transactivation assay, GAL4-PPARγ chimera in CHO-K1 cells; assay type: cell-based; conditions: for Emax: CHO-K1, maximum effect relative to reference compound (Example 73 of EP 1 452 521-A1 = 100%), read-out: PPARγ efficacy; for pEC50: CHO-K1 cells, luciferase reporter, 6 h stimulation
T2 construct: PPARγ (amino acids 203-506); expressed in transfected cells
T2 sequence (P37231 203-505 limits assumed): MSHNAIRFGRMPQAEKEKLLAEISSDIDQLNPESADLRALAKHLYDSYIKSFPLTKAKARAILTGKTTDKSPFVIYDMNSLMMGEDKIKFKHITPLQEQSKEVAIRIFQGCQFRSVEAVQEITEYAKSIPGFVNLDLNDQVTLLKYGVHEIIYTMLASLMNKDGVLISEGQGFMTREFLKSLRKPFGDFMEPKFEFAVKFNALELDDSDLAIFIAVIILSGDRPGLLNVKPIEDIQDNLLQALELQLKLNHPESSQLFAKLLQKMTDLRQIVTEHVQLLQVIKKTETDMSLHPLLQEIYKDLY
In short: (§1)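 CHO-K1 cells stably expressing GAL4 DNA-binding domain fused to the human PPAR ligand-binding domain (α aa 167-468, γ aa 203-506, δ aa 138-442) plus a GAL4-driven firefly luciferase reporter. Compounds added in serum-free medium for 6 h; EC50 from luminescence curves. Efficacy in % of a pan-PPAR agonist reference set as 100%.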

GAL4-PPARδ = molecular target: T3, GAL4-PPARδ (Homo sapiens, UniProt Q03181); assay: Cellular PPAR transactivation assay, GAL4-PPARδ chimera in CHO-K1 cells; assay type: cell-based; conditions: for Emax: CHO-K1, maximum effect relative to reference compound (Example 73 of EP 1 452 521-A1 = 100%), read-out: PPARδ efficacy; for pEC50: CHO-K1 cells, luciferase reporter, 6 h stimulation
T3 construct: PPARδ (amino acids 138-442); expressed in transfected cells
T3 sequence (Q03181 138-441 limits assumed): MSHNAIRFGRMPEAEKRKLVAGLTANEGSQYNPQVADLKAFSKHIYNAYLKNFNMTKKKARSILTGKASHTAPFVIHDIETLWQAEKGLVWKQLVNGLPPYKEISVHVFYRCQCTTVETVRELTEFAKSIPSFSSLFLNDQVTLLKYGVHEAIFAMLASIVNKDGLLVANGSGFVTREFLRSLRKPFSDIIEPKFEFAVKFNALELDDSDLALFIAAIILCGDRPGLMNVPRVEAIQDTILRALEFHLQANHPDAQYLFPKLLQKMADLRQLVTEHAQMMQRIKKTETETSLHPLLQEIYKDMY
In short: as §1

`CCOC(c1ccc(Cl)c(NC(=O)[C@H](c2ccc(Cl)cc2)[C@@H](C)C(F)(F)F)c1)C1(C(=O)O)CC1` (single isomer, unassigned) [Example 101] was tested, and the “MEC (minimum effective concentration), sGC-activating activity in the CHO reporter cell” value (shortened to “MEC (minimum effective concentration)”) (sGC) was 0.3 nM, the pIC50 (saphenous artery) was 6.16 and the Emax (GAL4-PPARγ) was 0%. The pEC50 (GAL4-PPARγ) was under 5.00, the Emax (GAL4-PPARδ) was 0% and the pEC50 (GAL4-PPARδ) was under 5.00.

`[2H]C([2H])([2H])OC(c1ccc(Cl)c(NC(=O)[C@H](c2ccc(Cl)cc2)[C@@H](C)C(F)(F)F)c1)C1(C(=O)O)CC1` (single isomer, unassigned; (+)) [Example 99] was tested, and the “MEC (minimum effective concentration)” value (sGC) was 1 nM, the Emax (GAL4-PPARγ) was 0% and the pEC50 (GAL4-PPARγ) was under 5.00. It also gave an Emax (GAL4-PPARδ) of 0% and a pEC50 (GAL4-PPARδ) of under 5.00.

For `C[C@H]([C@H](C(=O)Nc1cc(CC2(C(=O)O)CC2)ccc1Cl)c1ccc(Cl)c(F)c1)C(F)(F)F` [Example 30, (+)-1-(4-chloro-3-{[(2S,3R)-2-(4-chloro-3-fluoro-phenyl)-4,4,4-trifluoro-3-methylbutanoyl]amino}-benzyl)cyclopropanecarboxylic acid], the “MEC (minimum effective concentration)” value (sGC) was 0.3 nM, the pIC50 (saphenous artery) was 6.22 and the Emax (GAL4-PPARγ) was 20%. The pEC50 (GAL4-PPARγ) was 5.64, the Emax (GAL4-PPARδ) was 0% and the pEC50 (GAL4-PPARδ) was under 5.00.

For `C[C@H]([C@H](C(=O)Nc1cc(CC2(C(=O)O)CC2)ccc1Cl)c1ccc(Cl)cc1)C(F)(F)F` [Example 50, (+)-1-(4-Chloro-3-{[(2S,3R)-2-(4-chlorophenyl)-4,4,4-trifluoro-3-methylbutanoyl]amino}benzyl)-cyclopropanecarboxylic acid], the “MEC (minimum effective concentration)” value (sGC) was 0.4 nM, the pIC50 (saphenous artery) was 6.84 and the Emax (GAL4-PPARγ) was 45%. It also gave a pEC50 (GAL4-PPARγ) of 5.52, an Emax (GAL4-PPARδ) of 0% and a pEC50 (GAL4-PPARδ) of under 5.00.
